Each structure is given as a SMILES string. Values joined by “and” are separate entries in the source; they are usually repeats but may differ in a detail not shown here. Equal values may be shown once.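 Interpolation was linear, between the two tested concentrations surrounding the appropriate level; five concentrations were tested over 48 hours in 96-well plates. GI50: concentration for 50% inhibition of growth.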 Active and inactive are the calls of the source. Rule as the data show it: active = GI50 up to about 1.1 µM and inactive = higher.

Among the test systems are HCT-15; OVCAR-3; T47D; KM12; UO-31; SK-OV-3; Malme-3M; HCC 2998; SNB-75; NCI-H23; ACHN; RXF 393; MDA-N; COLO 205; IGROV-1; HOP-62; PC-3; CCRF-CEM; MCF7; SR.
Test in all cases: inhibition of tumour cell growth, NCI panel, 48 h

With `COc1cc(OC)cc(-c2nc(O)c3ccccc3n2)c1`, the GI50 in the assay with HCT-15 was greater than 100 µM; in the assay with OVCAR-3 it was > 100 µM (inactive); in the assay with T47D, > 100 µM (inactive); with KM12 it was > 100 µM (inactive); with UO-31 it was 71.9 µM (inactive); in the assay on SK-OV-3 it was 22.8 µM (inactive). For the same compound, the GI50 in the assay on Malme-3M is > 100 µM (inactive); in the assay on HCC 2998, > 100 µM (inactive); with SNB-75, 29.6 µM (inactive); with NCI-H23, > 100 µM (inactive); in the assay with ACHN, > 100 µM (inactive); with RXF 393, 29.8 µM (inactive). The GI50 in the assay on MDA-N was > 100 µM (inactive); in the assay on COLO 205, > 100 µM (inactive); in the assay with IGROV-1, 93.1 µM (inactive); in the assay with HOP-62, 38.9 µM (inactive); with PC-3, > 100 µM (inactive); with CCRF-CEM, > 100 µM (inactive).

For the compound `O=C(/C=C(\S/C=C(/c1ccccc1)N1CCn2c(C(=O)c3ccccc3)c(C(=O)c3ccccc3)c(C(=O)c3ccccc3)c21)C(=O)c1ccccc1)c1ccccc1`, the GI50 with HCT-15 is greater than 10 µM; in the assay on OVCAR-3, > 10 µM (inactive); with T47D, > 10 µM (inactive); with KM12 it was > 10 µM (inactive); in the assay on SK-OV-3, > 10 µM (inactive); with Malme-3M, > 10 µM (inactive). The GI50 in the assay on HCC 2998, in the assay on SNB-75, in the assay with NCI-H23, in the assay on ACHN, with MDA-N and in the assay on COLO 205 was > 10 µM (inactive) in each case. Moreover, the GI50 in the assay on IGROV-1, in the assay with HOP-62, in the assay with MCF7, in the assay on PC-3 and in the assay with CCRF-CEM was > 10 µM (inactive) each time.

With `CCN(CC)CCOC(c1cc(OC)ccc1OC)c1ccc2n1-c1ccccc1OC2` (stereo not drawn), the GI50 in the assay on HCT-15 was 11.5 µM; in the assay on OVCAR-3 it was 15.7 µM (inactive); in the assay on T47D it was 24 µM (inactive); in the assay with KM12, 16.5 µM (inactive); with UO-31, 11 µM (inactive); in the assay with Malme-3M it was 18.5 µM (inactive). In addition, the GI50 in the assay on HCC 2998 is 5.31 µM (inactive); in the assay with SNB-75 it was 2.31 µM (inactive); in the assay with NCI-H23, 12.9 µM (inactive); in the assay with ACHN, 13.8 µM (inactive); in the assay with RXF 393 it was 8.91 µM (inactive); in the assay on MDA-N, 13.6 µM (inactive). Moreover, the GI50 was 5.42 µM (inactive) in the assay on COLO 205; 7 µM (inactive) in the assay on IGROV-1; 16.4 µM (inactive) in the assay with HOP-62; 14.6 µM (inactive) in the assay on MCF7; 12.8 µM (inactive) with PC-3; 3.25 µM (inactive) with CCRF-CEM.

Regarding `COc1ccccc1/C(=N\OCCC(=O)O)c1cccs1`, the GI50 is greater than 100 µM in the assay on HCT-15; > 100 µM (inactive) in the assay with OVCAR-3; > 100 µM (inactive) in the assay on T47D; > 100 µM (inactive) in the assay on KM12; > 100 µM (inactive) in the assay with UO-31; > 100 µM (inactive) with SK-OV-3. The GI50 in the assay on Malme-3M, with HCC 2998, in the assay on SNB-75, with NCI-H23, in the assay on ACHN and in the assay on RXF 393 was > 100 µM (inactive) in each case. Also, the GI50 in the assay with MDA-N, in the assay with COLO 205, with HOP-62, with MCF7, with PC-3 and with CCRF-CEM was > 100 µM (inactive) each time.

With `COC(=O)C(=O)C(C(=O)C(=O)Nc1ccccc1C(=O)OC)c1nc2ccc(C(=O)c3ccccc3)cc2nc1O` (stereo not drawn), the GI50 in the assay with HCT-15 is 46.8 µM; in the assay with OVCAR-3 it was > 100 µM (inactive); in the assay with T47D it was 38.3 µM (inactive); in the assay with KM12, 21.7 µM (inactive); with UO-31, 31.7 µM (inactive); with SK-OV-3, 60.7 µM (inactive). The GI50 in the assay with Malme-3M is 76.9 µM (inactive); in the assay with SNB-75, 24.2 µM (inactive); in the assay with NCI-H23 it was 64.3 µM (inactive); with ACHN, 52.6 µM (inactive); in the assay with RXF 393, 33.4 µM (inactive); in the assay with MDA-N it was 28.4 µM (inactive). For the same compound, the GI50 was 62.8 µM (inactive) with IGROV-1, 55 µM (inactive) in the assay with HOP-62, 66.5 µM (inactive) in the assay on MCF7 and 40.4 µM (inactive) in the assay with PC-3.

`CCn1cc(C(=O)O)c(=O)c2cc3c(cc21)S(=O)(=O)CC3`: the GI50 with HCT-15 was greater than 100 µM; in the assay with OVCAR-3, > 100 µM (inactive); with T47D, > 100 µM (inactive); in the assay with KM12 it was > 100 µM (inactive); in the assay on UO-31, > 100 µM (inactive); in the assay on SK-OV-3, > 100 µM (inactive). For the same compound, the GI50 with Malme-3M, in the assay with HCC 2998, with SNB-75, in the assay on NCI-H23, with ACHN and with RXF 393 was > 100 µM (inactive) each time. Besides, the GI50 in the assay on MDA-N, with COLO 205, in the assay with IGROV-1, in the assay on HOP-62, in the assay on MCF7 and with PC-3 was > 100 µM (inactive) throughout. In the assay with CCRF-CEM, the GI50 was > 100 µM (inactive).

For the compound `O=c1cnc2cc3ccccc3cc2[nH]1`, the GI50 in the assay with HCT-15 was greater than 100 µM; with OVCAR-3, > 100 µM (inactive); in the assay on KM12, > 100 µM (inactive); with UO-31, 46.9 µM (inactive); in the assay with SK-OV-3, > 100 µM (inactive); in the assay on Malme-3M, > 100 µM (inactive). Besides, the GI50 in the assay with HCC 2998 was > 100 µM (inactive); in the assay with SNB-75, 37.8 µM (inactive); with NCI-H23, > 100 µM (inactive); with ACHN it was > 100 µM (inactive); in the assay with RXF 393, > 100 µM (inactive); in the assay with MDA-N it was > 100 µM (inactive). For the same compound, the GI50 with SR, with COLO 205, in the assay with IGROV-1, with HOP-62, in the assay on MCF7 and in the assay with PC-3 was > 100 µM (inactive) each time. In addition, the GI50 in the assay with CCRF-CEM was > 100 µM (inactive).

For `CC1CNC(c2ccc(COc3ccc(C4=NC(C)CN4)cc3)cc2)=N1` (stereo not drawn), the GI50 in the assay with HCT-15 is greater than 100 µM; in the assay on OVCAR-3 it was 34.9 µM (inactive); with T47D it was 15.5 µM (inactive); in the assay on KM12 it was 27.4 µM (inactive); in the assay on UO-31, > 100 µM (inactive); in the assay on SK-OV-3 it was 73.1 µM (inactive). The GI50 is 27.6 µM (inactive) with Malme-3M; 46.5 µM (inactive) in the assay with HCC 2998; 13.2 µM (inactive) in the assay with SNB-75; 53.3 µM (inactive) in the assay on NCI-H23; > 100 µM (inactive) with ACHN; 58.6 µM (inactive) in the assay on RXF 393. Further, the GI50 in the assay on MDA-N is 82.2 µM (inactive); in the assay on COLO 205, > 100 µM (inactive); in the assay with IGROV-1 it was > 100 µM (inactive); in the assay on HOP-62, 32.8 µM (inactive); in the assay on MCF7 it was 18.3 µM (inactive); with PC-3 it was 32.1 µM (inactive). Also, in the assay on CCRF-CEM, the GI50 was 59.6 µM (inactive).

Take `CC(C)(C)OC/C=C(\Br)CO`: the GI50 is greater than 100 µM in the assay on HCT-15; > 100 µM (inactive) with OVCAR-3; > 100 µM (inactive) in the assay with T47D; 41.6 µM (inactive) with KM12; > 100 µM (inactive) in the assay with UO-31; > 100 µM (inactive) with SK-OV-3. Also, the GI50 in the assay with Malme-3M, in the assay on HCC 2998, in the assay on SNB-75, with NCI-H23, with ACHN and in the assay on RXF 393 was > 100 µM (inactive) each time. Also, the GI50 in the assay on MDA-N, in the assay with COLO 205, in the assay on HOP-62, in the assay with MCF7, with PC-3 and in the assay with CCRF-CEM was > 100 µM (inactive) throughout.

As to `CCOC(=O)c1cc(NC(=O)N(CCC#N)CCN(C(=O)N[C@@H](Cc2ccccc2)C(=O)N[C@@H](CC(C)C)C(=O)NC)c2ccccc2)ccc1OC`, the GI50 was 57.4 µM in the assay with HCT-15; 40.9 µM (inactive) in the assay with OVCAR-3; 28.1 µM (inactive) with T47D; > 100 µM (inactive) with KM12; 34.4 µM (inactive) in the assay with UO-31; 70 µM (inactive) in the assay with SK-OV-3. The GI50 with Malme-3M was 29.4 µM (inactive); in the assay on HCC 2998, 35.1 µM (inactive); with SNB-75 it was 45 µM (inactive); with NCI-H23, 37.3 µM (inactive); in the assay with ACHN, 25.3 µM (inactive); in the assay on RXF 393, 23.1 µM (inactive). For the same compound, the GI50 in the assay on MDA-N is 57.1 µM (inactive); in the assay with COLO 205 it was > 100 µM (inactive); in the assay with IGROV-1 it was 41.8 µM (inactive); with HOP-62, 41.8 µM (inactive); in the assay on MCF7 it was 58.6 µM (inactive); in the assay on PC-3 it was 49.4 µM (inactive). For the same compound, the GI50 with CCRF-CEM was 89.9 µM (inactive).

For the compound `COC(=O)[C@H](Cc1ccccc1)NC(=O)[C@H](Cc1ccccc1)NC(=O)CN1C(=O)[C@@H]2C3C=CC(C3)[C@@H]2C1=O`, the GI50 with HCT-15 is 15.6 µM and 17.4 µM; with OVCAR-3, 16.6 µM (inactive) and 18 µM (inactive); with T47D, 21.9 µM (inactive) and 21.7 µM (inactive); in the assay with KM12 it was 20.7 µM (inactive) and 17.1 µM (inactive); in the assay on UO-31, 23.3 µM (inactive) and 15.7 µM (inactive); with SK-OV-3, 16.7 µM (inactive). In addition, the GI50 in the assay on HCC 2998 was 17.3 µM (inactive) and 16.7 µM (inactive); in the assay with SNB-75, 18.7 µM (inactive) and 18 µM (inactive); with NCI-H23, 17.6 µM (inactive) and 17.2 µM (inactive); with ACHN, 16.7 µM (inactive) and 16.2 µM (inactive); in the assay with RXF 393 it was 20.5 µM (inactive) and 18.4 µM (inactive); in the assay on MDA-N, 16.5 µM (inactive) and 17.2 µM (inactive). The GI50 with COLO 205 was 17.1 µM (inactive) and 15.8 µM (inactive); with IGROV-1, 16.5 µM (inactive) and 12.9 µM (inactive); in the assay on HOP-62 it was 19.7 µM (inactive) and 18.7 µM (inactive); in the assay on MCF7, 18.5 µM (inactive) and 17.8 µM (inactive); in the assay on PC-3, 15.6 µM (inactive) and 16.4 µM (inactive).

Values taken from ChEMBL document CHEMBL1201862, “PubChem BioAssay data set” (2004).
